Laboratory results as given in patent US7816521B2, “1,2,4-benzotriazine-1,4-dioxides” (Auckland Uniservices Limited, priority 2004, dated 2010).
pIC50: −log10 of the molar value. Where two headings read alike, the source gives them in different places.

Columns and labels:
[1] = system: HT29 cells; assay: First order rate constant for anoxic metabolism in HT29 cells (kmet); assay type: in vitro ADME, human; conditions: rate constant of bioreductive metabolism, Table 1
Protocol: The apparent first order rate constants for anoxic metabolism in HT29 cells (kmet) of compounds representative of the invention were either: • 1. Estimated at the C10 experimentally by incubating stirred single cell suspensions (typically 10 ml at 2×10^6/ml of HT29 cells derived by trypsinisation of multicellular spheroids) in αMEM without serum in 20 ml bottles under flowing 5% CO2/N2 for 90 min, then introducing the compound using deoxygenated DMSO stock solutions to give a range of final drug concentrations. Samples (0.5 ml) were removed at intervals (typically 5 min, 30 min, 1,2,3 hr), washed by centrifugation, and plated to determine the number of clonogenic survivors as described by Hicks et al Cancer Res. 2003 63, 5970. The concentration of compound giving 1 log of kill at 1 hr (C10) was estimated by interpolation. Additional samples taken at the same times were centrifuged to remove cells, and supernatant stored at −80° C. for subsequent HPLC or LCMS analysis. The concentration of compound in the extracellular medium was plotted against time and the concentration closest to the C10 was used to estimate the first order rate constant. This was scaled to MCL cell density as described in Hicks et al, Cancer Res. 2003, 63, 5970 to obtain kmet. Cell viability was determined with a hemocytometer at the end of drug exposure by staining with 0.4% trypan blue to ensure metabolic viability was >75%. TPZ (30 μM) was included in each experiment as a reference compound. O2, in solution was measured using an OxyLite O2 luminescent fiber optic probe (Oxford Optronix Ltd, UK) to ensure severe hypoxia (<0.1 μM).

[2] = Plasma pharmacokinetics, AUC of free drug in CD-1 nude mice; assay type: in vivo, mouse; conditions: for AUC: CD-1 nude, mouse, ip
Protocol: The area under the concentration time curve for free drug (AUCf) in mouse plasma at the maximum tolerated dose (MTD) was determined either experimentally or by calculation.
The compound was formulated in a suitable vehicle (e.g. 0.9% saline, 5% DMSO in 0.9% saline) and administered intraperitoneally (i.p.) as single dose to CD-1 nude mice in a dose-escalating format using 1.33-fold dose increments.
The compound was administered to CD-1 nude mice in a suitable formulation as a single dose (i.p.) at the MTD. Blood samples were collected by retro-orbital sinus bleed or cardiac puncture after which the mouse was culled, or by serial bleeding from the tail vein. Typical time points were 15, 30, 60, and 120 min after administration. Blood was collected in a heparinised container and centrifuged to collect the plasma. The plasma concentration of the compound was determined by HPLC or LCMS using suitable sample preparation and analytical methods. Calibration was done with internal or external standards. The area under the concentration-time curve (AUC) for total (free plus bound) drug was calculated using the linear/log trapezoidal rule and extrapolation to infinity OR standard non-compartmental (PK) modelling.
Plasma protein binding was measured by the determination of the free fraction (FF) by equilibrium dialysis at 37° C. in 50% (v/v) mouse plasma in phosphate-buffered saline (pH 7.4), using a single drug concentration at or near the observed or extrapolated maximum concentration in plasma (Cmax). Compound concentrations after dialysis were determined by HPLC or LCMS.
AUCf for the compound administered as a single dose (i.p.) to CD-1 nude mice at the MTD can be estimated using the following regression equation: Log10(AUCf)=a+b×log Pneutral+c×log10(IC50)+d×log10(HCR)+e×log10(DMCL)+f×log10(kmet)+g×(log Pneutral)^2 where the coefficients are described in the following table: […]

[3] = system: hypoxic cells in HT29 tumours; assay: HT29 excision assay (drug after 20 Gy radiation, clonogenic survival); assay type: in vivo, human; conditions: for HT29 log kill: log10 kill of hypoxic cells in HT29 tumours, additional to radiation alone, MTD or 75% of MTD, Table 2
Text: In order to test the validity of this PK/PD model as a tool for predicting the antitumour activity of TPZ analogues, the inventors determined the key PK/PD parameters for 13 TPZ analogues, and TPZ itself, for the HT29 human colon carcinoma cell line. These parameters were then used to calculate the expected killing in hypoxic regions of HT29 tumours following a single intraperitoneal dose of the compounds at their maximum tolerated dose. The results of this calculation were then compared with measured killing of hypoxic cells in HT29 tumours, determined by administering the compounds immediately (within 5 min) after gamma irradiation (cobalt 60, 20 Gy) to sterilise oxygenated cells in the tumours. Tumours were removed 18 hours later and the number of surviving cells determined by clonogenic assay. The measured PK/PD parameters, model prediction (using the above 3D microvascular network), and experimentally determined hypoxic cell kill is shown in Table 1, and the relationship between predicted and measured cell kill in FIG. 4. The prediction is statistically highly significant (p=0.001, Fisher exact test). […] If the extravascular transport component was excluded from the model, the R^2 for this regression was only 0.28 and the relationship was not statistically significant.
Animals were treated with radiation alone (RAD, 20 Gy whole body); RAD+TPZ (316 μmol/kg); compound 3 (562 μmol/kg); RAD+compound 3 (562 μmol/kg). Tumours were excised 18 hr after treatment and clonogenic survival determined by staining colonies 14 days later. Each symbol represents a separate tumour. p<0.01 (one way ANOVA with Dunnett's test) for RAD+compound 3 and for RAD+TPZ versus RAD only. Horizontal lines are the historical means for untreated controls (upper line) and 20 Gy radiation only (lower line).
Compounds were evaluated with single dose radiation using s.c. HT29 tumors (average of two largest diameters 7-10 mm) grown by inoculating 10^7 cells (obtained by enzymatic dissociation of multicellular spheroids). Drugs were administered as single i.p. doses at their MTD with the following groups in each experiment. A: vehicle control, B: test drug, C: Radiation (20 Gy, cobalt-60, whole body irradiation), D: TPZ (316 μmol/kg) 5 min after radiation, E: Test drug 5 min after radiation. Each group included 3 (A, B) or 5 (C-E) mice. Tumors were excised 18 hr after treatment and plated to determine clonogenicity. Hypoxic cytotoxicity is determined by the difference in surviving fraction between groups C and E, while comparison of A and B evaluates oxic cell killing. Total yield of clonogens was used as the key parameter if cell yields were affected by treatment. Results of this assay are illustrated for compound 3 (and TPZ) in FIG. 5.

[4] = system: human colon carcinoma cell line HT-29; assay: Proliferation assay (IC50) under aerobic and hypoxic conditions; assay type: cell-based; conditions: for pIC50: Homo sapiens, HT-29, HT29, anoxic, 4 hr exposure; for HCR: hypoxic cytotoxicity ratio: aerobic IC50 / hypoxic IC50, HT29
Protocol: Compounds representative of the invention were evaluated under both aerobic and hypoxic conditions in a proliferation assay (IC50) using the human colon carcinoma cell line HT-29 as previously described [Hay et al, J. Med. Chem, 2003, 46, 169]. For each experiment, compounds were simultaneously tested under both oxic and hypoxic conditions and included TPZ as an independent internal control at the front and back of the assay. In all cases, a 8-methyl-5-nitroquinoline derivative was used as a second internal control to confirm that strict hypoxia was present during the experiment [Siim et al., Br. J. Cancer 1994, 70, 596].

[5] = AUC of free drug, single i.p. dose at maximum tolerated dose, mice, Table 1
[6] = plasma, mouse plasma, free drug, at the MTD or 75% of the MTD, Table 2, read-out: AUC
[7] = plasma, AUC of free drug, single i.p. dose at maximum tolerated dose, mice, Table 1, read-out: AUCf

| Structure (SMILES) | kmet [1] [min⁻¹] | AUCf [2, 5] [µM·h] | AUC [2, 6] [µM·h] | HT29 log kill [3] | activity against hypoxic cells in HT29 tumours ([3]; relative to radiation alone) | pIC50 [4] | HCR [4] | AUC [2, 7] [µM·h] | AUC ([2]; in vivo, AUC) [µM·h] | AUC ([2]; in vivo, AUCf) [µM·h] |
| --- | --- | --- | --- | --- | --- | --- | --- | --- | --- | --- |
| Cc1ccc2c(c1)[n+]([O-])c(NCCN(C)C)n[n+]2[O-] [H, N^1,N^1-Dimethyl-N^2-(6-methyl-1,4-dioxido-1,2,4-benzotriazin-3-yl)-1,2-ethanediamine] | 1.52 | 69.0 | 67.8 | 1.001 | significant activity | 5.73 | 159.0 |  |  |  |
| Cc1ccc2c(c1)[n+]([O-])c(N)n[n+]2[O-] [B, 6-Methyl-1,2,4-benzotriazin-3-amine 1,4-Dioxide] | 0.20 | 188.7 | 216 | 2.165 |  | 4.89 | 35.8 |  |  |  |
| CN(CCCNC(=O)c1cccc2cc3ccccc3nc12)CCCNc1n[n+]([O-])c2ccccc2[n+]1[O-] [L] | 9.18 |  | 3.3 | −0.051 |  | 7.30 | 154.0 | 3.6 |  |  |
| Cc1ccc2c(c1)[n+]([O-])nc(NCCN(C)C)[n+]2[O-] [F, 7-Methyl-N-[2-(dimethylamino)ethyl]-1,2,4-benzotriazin-3-amine 1,4-Dioxide] | 2.54 |  | 3.9 | 0.196 |  | 5.97 | 34.3 | 3.5 |  |  |
| Cc1ccc2c(c1)[n+]([O-])c(NCCCN(C)CCCNC(=O)c1cccc3cc4ccccc4nc13)n[n+]2[O-] [N] | 4.74 |  | 1.6 | 0.027 |  | 6.65 | 134.0 | 1.3 |  |  |
| COCCc1n[n+]([O-])c2ccccc2[n+]1[O-] [J] | 2.01 |  | 83.5 | 0.8 |  | 5.46 | 49.4 | 79 |  |  |
| Nc1n[n+]([O-])c2c(Cl)cccc2[n+]1[O-] [D, 8-Chloro-1,2,4-benzotriazin-3-amine 1,4-Dioxide] | 10.03 |  | 0.7 | −0.154 |  | 6.26 | 13.6 | 0.8 |  |  |
| CN(CCCNC(=O)c1cccc2ccc(-c3ccncc3)nc12)CCCNc1n[n+]([O-])c2ccccc2[n+]1[O-] [M] | 9.13 |  | 1.2 | 0.138 |  | 6.90 | 119.0 | 0.9 |  |  |
| CS(=O)(=O)c1ccc2c(c1)[n+]([O-])nc(N)[n+]2[O-] [E, 7-(Methylsulfonyl)-1,2,4-benzotriazin-3-amine 1,4-Dioxide] | 1.00 |  | 15.6 | −0.028 |  | 5.00 | 12.0 | 15.6 |  |  |
| Nc1n[n+]([O-])c2ccccc2[n+]1[O-] [A, tirapazamine, reference compound] | 0.60 |  |  | 1.17 |  |  |  |  | 148 | 148 |
| CCc1n[n+]([O-])c2ccccc2[n+]1[O-] [I] | 1.91 |  | 139 | 0.886 |  | 5.17 | 54.2 | 141 |  |  |
| [O-][n+]1nc(NCCCCCCNc2c3ccccc3nc3ccccc23)[n+]([O-])c2ccccc21 [K] | 18.33 |  |  | 0.009 |  | 7.60 | 31.8 | 0.042 |  |  |
| Nc1n[n+]([O-])c2cc(Cl)ccc2[n+]1[O-] [C, 7-Chloro-1,2,4-benzotriazin-3-amine 1,4-Dioxide] | 3.92 |  | 2.7 | −0.007 |  | 6.14 | 28.5 | 1.9 |  |  |
| CCCN(CCC)CCNc1n[n+]([O-])c2ccccc2[n+]1[O-] [G] | 4.89 | 7.2 | 7.1 | 0.248 |  | 5.78 | 81.6 |  |  |  |
